In the supplement of paper PMC10307832:

Experiments:
Test in all cases: relative viability (nuclei count vs DMSO), 5 days (fraction); higher = more cells survive
NCI-H322M = test system: NCI-H322M
How it was run: (§1)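 Relative viability was taken as the ratio of nuclei in treated wells to nuclei in vehicle wells. Lung cancer cell lines in 1536-well plates received compounds by pin tool one day after seeding, either one drug alone or a fixed anchor-drug dose plus five library-drug doses (not always all listed) in √10 steps. Nuclei were counted on 4× images after 5 days of treatment, and values are medians of duplicate plates.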

SK-MES-1 = test system: SK-MES-1
How it was run: as §1

NCI-H1915 = test system: NCI-H1915
How it was run: as §1

NCI-H2347 = test system: NCI-H2347
How it was run: as §1

NCI-H520 = test system: NCI-H520
How it was run: as §1

NCI-H441 = test system: NCI-H441
How it was run: as §1

NCI-H1563 = test system: NCI-H1563
How it was run: as §1

NCI-H3122 = test system: NCI-H3122
How it was run: as §1

LCLC-103H = test system: LCLC-103H
How it was run: as §1

NCI-H650 = test system: NCI-H650
How it was run: as §1

NCI-H1792 = test system: NCI-H1792
How it was run: as §1

## Clc1ccc(Nc2nnc(Cc3ccncc3)c3ccccc23)cc1 [Vatalanib] + C[C@@H](Oc1cc(-c2cnn(C3CCNCC3)c2)cnc1N)c1c(Cl)ccc(F)c1Cl [Crizotinib] (partner 1 µM)
NCI-H322M; first compound 0.04 µM
  relative viability: 1.02
NCI-H322M; first compound 0.1265 µM
  relative viability: 0.891
NCI-H322M; first compound 0.4 µM
  relative viability: 0.958
NCI-H322M; first compound 1.265 µM
  relative viability: 0.858
NCI-H322M; first compound 4 µM
  relative viability: 0.939
SK-MES-1; first compound 0.04 µM
  relative viability: 1.01
SK-MES-1; first compound 0.1265 µM
  relative viability: 0.808
SK-MES-1; first compound 0.4 µM
  relative viability: 1.14
SK-MES-1; first compound 1.265 µM
  relative viability: 0.927
SK-MES-1; first compound 4 µM
  relative viability: 0.925
NCI-H1915; first compound 0.04 µM
  relative viability: 0.939
NCI-H1915; first compound 0.1265 µM
  relative viability: 0.869
NCI-H1915; first compound 0.4 µM
  relative viability: 0.885
NCI-H1915; first compound 1.265 µM
  relative viability: 0.92
NCI-H1915; first compound 4 µM
  relative viability: 0.918
NCI-H2347; first compound 0.04 µM
  relative viability: 0.642
NCI-H2347; first compound 0.1265 µM
  relative viability: 0.69
NCI-H2347; first compound 0.4 µM
  relative viability: 0.654
NCI-H2347; first compound 1.265 µM
  relative viability: 0.817
NCI-H2347; first compound 4 µM
  relative viability: 0.732
NCI-H520; first compound 0.04 µM
  relative viability: 0.667
NCI-H520; first compound 0.1265 µM
  relative viability: 0.849
NCI-H520; first compound 0.4 µM
  relative viability: 0.824
NCI-H520; first compound 1.265 µM
  relative viability: 0.614
NCI-H520; first compound 4 µM
  relative viability: 0.696
NCI-H441; first compound 0.04 µM
  relative viability: 0.851
NCI-H441; first compound 0.1265 µM
  relative viability: 0.605
NCI-H441; first compound 0.4 µM
  relative viability: 0.72
NCI-H441; first compound 1.265 µM
  relative viability: 0.835
NCI-H441; first compound 4 µM
  relative viability: 0.831
NCI-H1563; first compound 0.04 µM
  relative viability: 0.848
NCI-H1563; first compound 0.1265 µM
  relative viability: 0.754
NCI-H1563; first compound 0.4 µM
  relative viability: 0.961
NCI-H1563; first compound 1.265 µM
  relative viability: 0.818
NCI-H1563; first compound 4 µM
  relative viability: 0.859
NCI-H3122; first compound 0.04 µM
  relative viability: 0.25
NCI-H3122; first compound 0.1265 µM
  relative viability: 0.274
NCI-H3122; first compound 0.4 µM
  relative viability: 0.269
NCI-H3122; first compound 1.265 µM
  relative viability: 0.249
NCI-H3122; first compound 4 µM
  relative viability: 0.288
LCLC-103H; first compound 0.04 µM
  relative viability: 1.04
LCLC-103H; first compound 0.1265 µM
  relative viability: 1.04
LCLC-103H; first compound 0.4 µM
  relative viability: 1.15
LCLC-103H; first compound 1.265 µM
  relative viability: 0.999
LCLC-103H; first compound 4 µM
  relative viability: 1.11
NCI-H650; first compound 0.04 µM
  relative viability: 0.726
NCI-H650; first compound 0.1265 µM
  relative viability: 0.627
NCI-H650; first compound 1.265 µM
  relative viability: 0.641
NCI-H650; first compound 4 µM
  relative viability: 0.606
NCI-H1792; first compound 0.04 µM
  relative viability: 0.945
NCI-H1792; first compound 0.1265 µM
  relative viability: 0.972
NCI-H1792; first compound 0.4 µM
  relative viability: 0.921
NCI-H1792; first compound 1.265 µM
  relative viability: 0.912
NCI-H1792; first compound 4 µM
  relative viability: 0.98
